Values joined by “and” are separate entries in the source; they are usually repeats but may differ in a detail not shown here. Equal values may be shown once.
Tested on: 266295-075-R-J1-PDC spheroid viability
Test: Anticancer human tumor 266295-075-R-J1-PDC patient-derived head and neck squamous carcinoma cell line growth inhibition [POLQ]
Conditions: spheroids with HUVEC and MSC; for viability, T/C: stronger effect = lower value
Description: Multicellular complex tumor spheroid response to Polymerase (POL) inhibitors (novobiocin, ART-558, RP6685) in combination with a variety of drugs and investigational agents in selected tumor cell lines
The POL inhibitors (novobiocin, ART-558, and RP6685) were evaluated both individually and in combination with standard of care and investigational anticancer small molecules within a complex spheroid model of solid tumors. . Complex spheroids include a stromal component modeled by human endothelial cells (HUVEC) and fibroblasts modeled by human mesenchymal stem cells (MSCs). The concentration ranges selected for each drug and investigational agent were based upon clinically achievable concentrations if the clinical Cmax of the agent was known.
Compounds. The drugs and investigational agents: novobiocin (NSC847541), ART-558 (NSC835418), RP-6685 (NSC848927), peposertib (NSC802822), ceralasertib (NSC780249), elimusertib (NSC800525), camonsertib (NSC841442), AZD-1390 (NSC803789), olaparib (NSC753686), talazoparib (NSC767125), rucaparib (NSC756644), sotorasib (NSC818433), MRTX-1133 (NSC836407), SN-38 (NSC673596), topotecan (NSC609699), epotoside (NSC141540), doxorubicin (NSC123127), gemcitabine (NSC613327), 5-fluorouracil (NSC19893), paclitaxel (NSC125973), vemurafenib (NSC761431), MSA-2 (NSC828583), SN-011 (NSC837082), adavosertib (NSC754352), prexasertib (NSC758257), carboplatin (NSC241240) and oxaliplatin (NSC266046), were obtained from the National Cancer Institute (NCI) Developmental Therapeutics Program Chemical Repository (21). The FDA-approved anticancer drug set is available from the Developmental Therapeutics Program at https://dtp.cancer.gov/organization/dscb/obtaining/. […] The stock solutions were prepared in dimethyl sulfoxide (DMSO, Sigma-Aldrich, St. Louis, MO, cat. D2650), except for the platinum compounds which were prepared in saline (Quality Biological, Gaithersburg, MD, cat. 114-055-101), at 800-fold the tested concentration and stored at -70 degrees C prior to their use. All drugs and investigational agents were tested over a range starting from a high concentration at or near the clinical Cmax and decreasing in half-log increments. If the clinical Cmax for an agent had not been determined, the highest concentration tested was 10 microM, except for SN-38, which was tested at a high concentration of 1 microM.
Cell Culture. All cells were maintained in an incubator at 37 degrees C and 5% CO2 with 95% humidity. The PDC lines were cultured according to standard operating procedures established by the NCI PDMR (https://pdmr.cancer.gov). Table 3 of the manuscript, lists the cell lines along with the number of the three cell types plated to form the mct-spheroids and media for tumor cell growth. After thawing, all PDC lines, except 997537-175-T-J1-PDC and 415267-285-R-J2-PDC, were cultured in Matrigel-coated flasks prepared with a working solution of 1X Ham's F-12 nutrient mix, without supplementation (Thermo Fisher Scientific, cat. 11765054), 100 U/mL penicillin-streptomycin (Thermo Fisher Scientific, cat. 15140122), and 2.5% Matrigel (Corning Inc., Corning, NY, cat. 354248) for the first three passages. The two PDC lines 997537-175-T-J1-PDC and 415267-285-R-J2-PDC were cultured on uncoated flasks. The 857933-349-R-J2-PDC line was cultured in 6C/Colon 1B media containing advanced DMEM/F-12 (Thermo Fisher Scientific, cat. 12634028), 10 mM HEPES (Thermo Fisher Scientific, cat. 15630080), 1X GlutaMAX supplement (Thermo Fisher Scientific, cat. 35050061), 0.1 mg/mL primocin (InvivoGen, San Diego, CA, cat. ant-pm-2), 10% defined fetal bovine serum, heat inactivated (HyClone Laboratories Inc., Logan, UT, cat. SH30070.03HI), 50% L-WRN conditioned media (ATCC, cat. CRL-3276), 1.25 mM N-Acetyl-L-cysteine (Sigma-Aldrich, cat. A9165), 10 mM nicotinamide (Sigma-Aldrich, cat. N0636), 1X B-27 supplement (Thermo Fisher Scientific, cat. 17504044), 1X N-2 supplement (Thermo Fisher Scientific, cat. […]
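Also: spheroids exposed to compounds for seven days before readout.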

CC1COCCN1c1cc(-c2ccnn2C)c2ccnc(-c3ccn[nH]3)c2n1 (centres undefined) + COC1C(OC(N)=O)C(O)C(Oc2ccc3c(O)c(NC(=O)c4ccc(O)c(CC=C(C)C)c4)c(=O)oc3c2C)OC1(C)C
IC50 (curve of first compound, second compound 0.0316 µM): 4.35 µM | IC50 (curve of first compound, second compound 0.1 µM): 2.01 µM | IC50 (curve of first compound, second compound 0.316 µM): 1.91 µM | IC50 (curve of first compound, second compound 1 µM): 3.89 µM | IC50 (curve of first compound, second compound 3.16 µM): 4.51 µM | IC50 (curve of first compound, second compound 10 µM): 1.97 µM | viability, T/C (second compound 0.0316 µM, first compound 0.0316 µM): 91.2% | viability, T/C (second compound 0.0316 µM, first compound 0.1 µM): 84.7% | viability, T/C (second compound 0.0316 µM, first compound 0.316 µM): 71.2% | viability, T/C (second compound 0.0316 µM, first compound 1 µM): 63.3% | viability, T/C (second compound 0.0316 µM, first compound 3.16 µM): 54.3% | viability, T/C (second compound 0.0316 µM, first compound 10 µM): 42.1% | viability, T/C (second compound 0.1 µM, first compound 0.0316 µM): 91.7% | viability, T/C (second compound 0.1 µM, first compound 0.1 µM): 92.2% | viability, T/C (second compound 0.1 µM, first compound 0.316 µM): 65.8% | viability, T/C (second compound 0.1 µM, first compound 1 µM): 58% | viability, T/C (second compound 0.1 µM, first compound 3.16 µM): 48.4% | viability, T/C (second compound 0.1 µM, first compound 10 µM): 41.6% | viability, T/C (second compound 0.316 µM, first compound 0.0316 µM): 89.9% | viability, T/C (second compound 0.316 µM, first compound 0.1 µM): 90.6% | viability, T/C (second compound 0.316 µM, first compound 0.316 µM): 63.7% | viability, T/C (second compound 0.316 µM, first compound 1 µM): 61.3% | viability, T/C (second compound 0.316 µM, first compound 3.16 µM): 43.6% | viability, T/C (second compound 0.316 µM, first compound 10 µM): 38.7% | viability, T/C (second compound 1 µM, first compound 0.0316 µM): 110% | viability, T/C (second compound 1 µM, first compound 0.1 µM): 91.2% | viability, T/C (second compound 1 µM, first compound 0.316 µM): 79.1% | viability, T/C (second compound 1 µM, first compound 1 µM): 62.5% | viability, T/C (second compound 1 µM, first compound 3.16 µM): 53.3% | viability, T/C (second compound 1 µM, first compound 10 µM): 41% | viability, T/C (second compound 3.16 µM, first compound 0.0316 µM): 98.2% | viability, T/C (second compound 3.16 µM, first compound 0.1 µM): 82.8% | viability, T/C (second compound 3.16 µM, first compound 0.316 µM): 77.2% | viability, T/C (second compound 3.16 µM, first compound 1 µM): 63.9% | viability, T/C (second compound 3.16 µM, first compound 3.16 µM): 53.9% | viability, T/C (second compound 3.16 µM, first compound 10 µM): 41.9% | viability, T/C (second compound 10 µM, first compound 0.0316 µM): 87.6% | viability, T/C (second compound 10 µM, first compound 0.1 µM): 94.7% | viability, T/C (second compound 10 µM, first compound 0.316 µM): 75.7% | viability, T/C (second compound 10 µM, first compound 1 µM): 57.1% | viability, T/C (second compound 10 µM, first compound 3.16 µM): 47.8% | viability, T/C (second compound 10 µM, first compound 10 µM): 38.1%

COc1cccc2c1C(=O)c1c(O)c3c(c(O)c1C2=O)CC(O)(C(=O)CO)CC3OC1CC(N)C(O)C(C)O1 (centres undefined)
viability, T/C (compound 0.0316 µM): 75.4% and 85.8% and 98.2% | viability, T/C (compound 0.1 µM): 77% and 122% and 101% | viability, T/C (compound 0.316 µM): 67.3% and 74% and 72.5% | viability, T/C (compound 1 µM): 55.9% and 77.4% and 82.8% | viability, T/C (compound 3.16 µM): 47.4% and 71.8% and 63.5% | viability, T/C (compound 10 µM): 1.55% and 2.37% and 2.7% | IC50 (curve of compound): 2 µM and 4.15 µM and 3.85 µM
